We go through one substance from article PMC5905120, “An innovative immunotherapeutic strategy for ovarian cancer: CLEC10A and glycomimetic peptides” (Journal for Immunotherapy of Cancer, 2018).

The test system of test [1] is TREG cells within melanoma tumors. The experiment in a line: TREG cells in tumors of melanoma-bearing mice. Particulars: preliminary (data not shown). The class given is in vivo, mouse.
Test [2] concerns monocytes in the peritoneal cavity of RAG^—/— mice. The experiment in a line: Peritoneal monocyte response in RAG^—/— mice. Particulars: s.c. injection (data not shown). The class given is in vivo, mouse (RAG^—/—). As to the method:
To determine whether the target(s) for svL4 is located on lymphocytes, with subsequent cross-talk signaling to achieve activation of monocytes, an experiment was performed in which svL4 was injected into RAG^—/— mice, which lack activity of rag, the recombination activation gene. The ability to perform recombination to generate antigen-specific antibodies by V(D)J recombination is required for B and T cell precursors to produce functional antigen receptors on their surface, and without a functional rag gene these cells undergo apoptosis.

Test [3] concerns peritoneal cells of Balb/c mice. The experiment in a line: Peritoneal immune cell populations by flow cytometry, healthy Balb/c mice. It counts as in vivo, mouse (Balb/c). The protocol:
Healthy C57BL/6 male mice, 10 weeks old, were injected subcutaneously with peptides on alternate days. Peritoneal cells were isolated from mice 24 h after dosing by injecting ice cold PBS (containing 3% FBS) into the peritoneal cavity, gently massaging the abdomen, and then collecting the fluid, which was transferred into K2EDTA-treated tubes for evaluation of specific biomarkers. Cells from three mice in each group were pooled, counted and divided among FACS tubes (1 × 10^6 cells per tube). Cells were washed once in PBS containing 3% FBS, then stained with 0.25 to 1 μg of fluorescently conjugated antibody per 10^6 cells in 100 μL of buffer as recommended by the manufacturer (Table 2).
Cells were incubated with the antibodies for 30 min at 4 °C in the dark. Following staining, the cells were washed two times with PBS/3% FBS and immediately analyzed with a MACSQuant flow cytometer (Miltenyi Biotech, Inc., San Diego, CA). Compensation was performed using single stain tubes for each color present in the analysis as well as an unstained control sample. Collection of flow cytometric data and analysis with FlowJo software, version 10.0.6 (FlowJo, LLC, Ashland, OR) were performed by Biomodels LLC (Watertown, MA).
To examine whether increases occurred in mature immune cells, peritoneal cells from Balb/c and C57BL/6 mice were analyzed by flow cytometry after cells were stained with the markers listed in Table 2. […] To explore this observation more extensively, svL4 or sv6D was injected into C57BL/6 mice on day 0, 2 or 4. Peritoneal cells were examined by flow cytometry 24 h after each injection. Shown in Fig. 5 are results expressed as cell counts for F4/80 CD11b CD86 (mature, active macrophages); CD11c (DCs); CD11c CD 86 (activated DCs); CD4 CD69 (activated T cells); CD8 CD69 (activated cytotoxic T cells); NK1.1 CD3^+ CD69 (activated NKT cells); NK1.1 CD3^− CD69 (activated NK cells); CD19 (B cells); and CD19 CD73 CD80 CD273 (memory B cells). The numbers of these mature, activated cells continued to increase with each injection.
On the technique in general: Flow cytometry measures light scatter and fluorescence of single cells or particles in a stream.

The next test concerns the target T1, human ASGPR-1 (Homo sapiens, UniProt P07306).
T1 construct: purchased R&D Systems
T1 sequence (P07306 62-291 limits assumed): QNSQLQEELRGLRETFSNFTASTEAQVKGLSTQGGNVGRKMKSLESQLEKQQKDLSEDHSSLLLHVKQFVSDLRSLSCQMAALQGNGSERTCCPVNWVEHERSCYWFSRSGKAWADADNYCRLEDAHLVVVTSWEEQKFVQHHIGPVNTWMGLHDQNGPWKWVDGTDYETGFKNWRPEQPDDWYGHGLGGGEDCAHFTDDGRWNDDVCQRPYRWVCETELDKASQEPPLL
The test can be described thus: Solid-phase binding to recombinant human ASGPR-1. Particulars: Fig. 2a, representative of 3 independent experiments. The protocol: (§1) Solid-phase binding assays were performed with streptavidin-, protein A/G-, or Nickel-coated microtiter plates (Pierce). His-tagged or Fc-fusion recombinant receptors (R&D Systems, Minneapolis, MN) were reconstituted in PBS. Sufficient receptors were added to wells to saturate the coating. His-tagged receptors were added to each well at a 5-fold excess over the stated capacity of the Ni coating to minimize non-specific binding of the peptide. Wells were washed three times with binding buffer (25 mM Tris HCl, pH 7.4, 150 mM NaCl, 0.05% Tween-20) to remove unbound receptor and 50 μL of 2 μM biotinylated peptide in binding buffer were added and allowed to incubate for 1 h. The wells were washed four times with binding buffer and then incubated with 50 μL of 1 μg/mL streptavidin conjugated with peroxidase (Sigma-Aldrich) for 1 h. The wells were washed five times with binding buffer and 50 μL of peroxidase substrate (1-Step™ Ultra TMB, Pierce) were added. After several minutes to allow color development, the reaction was stopped with 50 μL 1 M H3PO4 and absorbance was measured at 450 nm. Bound streptavidin was quantitated by the specific activity of peroxidase (absorbance/ng protein conjugate/min) under the conditions of the assay.
(§2) Solid-phase binding assays were performed with recombinant human receptors. Three variations of the binding assay were used in this study, all of which allowed the arms of the tetravalent peptide to have full flexibility. (i) Biotinylated peptide was bound in microtiter wells coated with streptavidin and incubated with recombinant human receptors. After extensive washing, the bound receptor was measured by peroxidase conjugated to a receptor-specific antibody. (ii) The extracellular domains of receptors, which were fused with the Fc domain of immunoglobulin IgG, were bound in wells coated with protein A/G. Biotinylated peptide was incubated with the receptors and, after extensive washing, bound peptide was measured with streptavidin conjugated with peroxidase. Or (iii), recombinant receptors with a poly-His tag were bound to Nickel-coated wells and incubated with biotinylated peptide. svL4 and sv6D contain His residues (see Table 1) and can bind to the Ni coating, which was minimized by adding sufficient poly-His-tagged receptor to saturate the Ni coating.

For a further test, the system named is CLEC9A. The experiment in a line: Solid-phase binding to CLEC9A. Also on record: species or system human. Particulars: Fig. 2b. The protocol: as §1, with “The wells were washed five times with binding buffer and 50 μL of peroxidase substrate (1-Step™ Ultra TMB, Pierce) were added.” left out
Solid-phase binding assays were performed with recombinant human receptors. […] After extensive washing, the bound receptor was measured by peroxidase conjugated to a receptor-specific antibody. […]

The next test has as its target T2, human CLEC10A (Homo sapiens, UniProt Q8IUN9).
T2 construct: purchased R&D Systems
T2 sequence (Q8IUN9 61-316 limits assumed): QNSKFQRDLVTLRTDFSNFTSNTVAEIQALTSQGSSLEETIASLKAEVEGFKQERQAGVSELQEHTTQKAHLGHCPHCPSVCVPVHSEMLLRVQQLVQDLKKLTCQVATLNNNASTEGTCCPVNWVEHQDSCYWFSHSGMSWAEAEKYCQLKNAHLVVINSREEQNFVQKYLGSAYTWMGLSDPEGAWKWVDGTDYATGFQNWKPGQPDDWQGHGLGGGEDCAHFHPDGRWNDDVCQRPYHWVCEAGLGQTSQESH
The test can be described thus: Solid-phase binding to recombinant human CLEC10A. Particulars: Fig. 2a, representative of 3 independent experiments. The protocol:
as §1, §2

Bridges are numbered along the chain shown (N, C = ends). Roman numbers before positions name the chains, in order. Where no end group is shown, it is not given here.

In the case of “I: VQATQSNQHTPRGGGSKK-NH2 / II: VQATQSNQHTPRGGGSK / III: VQATQSNQHTPRGGGS / IV: VQATQSNQHTPRGGGS (amide I:17-IV:C, I:18-II:C, II:17-III:C) [svL4]”, the “TREG cells within tumors” value in test [1] is reported as “dramatic reduction in TREG cells”. Further, the “response of peritoneal monocytes vs. C57BL/6” value in test [2] is reported as “essentially the same as that in C57BL/6 mice”. For the same substance, in test [3] (1 nmole/g s.c., 24 h after a single injection), the “increases in macrophages, DCs, T cells and NK cells” value was “Several-fold increases”. Further, the “CD90.2^+ fraction of small cells” value in test [3] (after treatment with svL4) is “about 15%”. In addition, the “increase in mature immune cells” value in test [3] (within 24 h after a single injection (data not shown)) is “approximately 2 fold”. The “small cells (low FSc, low SSc)” value in test [3] (within 24 h after injection, healthy Balb/c, Fig. S1b) is listed as “decreased to a minimal level”. Further, the “binding to ASGPR-1” value on human ASGPR-1 is “also to ASGPR-1”. In the test on CLEC9A, the “binding to CLEC9A” value is “did not bind significantly”. At human CLEC10A, the “binding to CLEC10A” value is “bound to CLEC10A”.
